Experimental data as given in patent US9738634B2, “Heterocyclic amide compound and herbicide” (SYNGENTA PARTICIPATIONS AG, priority 2013, dated 2017).

Experiments:
Format in all cases: in vivo
barnyard grass [1] = test: Test Example 1: weedkilling efficacy, preemergent weed treatment in the submerged state; A: barnyard grass; settings: treatment dosage 252 g/ha
In short: (§1)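 Visual scores against set criteria were taken 3 weeks after treatment. Compounds, as diluted emulsions at specified g/ha, went onto the water surface of 4 cm-flooded alluvial soil pots on the day weeds were sown and 2.5-leaf rice was transplanted; greenhouse held 25–30 °C.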

bulrush [2] = test: Test Example 1: weedkilling efficacy, preemergent weed treatment in the submerged state; B: bulrush; settings: treatment dosage 252 g/ha
In short: as §1

oval-leafed pondweed [3] = test: Test Example 1: weedkilling efficacy, preemergent weed treatment in the submerged state; C: oval-leafed pondweed; settings: treatment dosage 252 g/ha
In short: as §1

transplanted rice = test: Test Example 1: preemergent weed treatment in the submerged state, effect on crop; a: transplanted rice; settings: treatment dosage 252 g/ha
In short: as §1

barnyard grass [4] = test: Test Example 2: weedkilling efficacy, growth period weed treatment in the submerged state; A: barnyard grass; settings: treatment dosage 252 g/ha
In short: (§2)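 Barnyard grass, bulrush and oval-leafed pondweed sown in alluvial soil under 4 cm flooding, greenhouse 25 to 30° C. At 1-2 leaf stage, water-diluted emulsion applied to the water surface at stated g/ha dosages; effects scored 3 weeks later.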

bulrush [5] = test: Test Example 2: weedkilling efficacy, growth period weed treatment in the submerged state; B: bulrush; settings: treatment dosage 252 g/ha
In short: as §2

oval-leafed pondweed [6] = test: Test Example 2: weedkilling efficacy, growth period weed treatment in the submerged state; C: oval-leafed pondweed; settings: treatment dosage 252 g/ha
In short: as §2

crabgrass [7] = test: Test Example 3: weedkilling efficacy through soil treatment; D: crabgrass; settings: treatment dosage 315 g/ha
In short: (§3)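 Crop and weed responses were judged three weeks after a uniform surface spray of the water-diluted emulsion at the given g/ha rate. Seeds sat beneath about 1.5 cm of sterilized diluvial soil, and boxes stood in a greenhouse at 25 to 30° C.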

green foxtail [8] = test: Test Example 3: weedkilling efficacy through soil treatment; E: green foxtail; settings: treatment dosage 315 g/ha
In short: as §3

wild oat [9] = test: Test Example 3: weedkilling efficacy through soil treatment; G: wild oat; settings: treatment dosage 315 g/ha
In short: as §3

black-grass [10] = test: Test Example 3: weedkilling efficacy through soil treatment; H: black-grass; settings: treatment dosage 315 g/ha
In short: as §3

Italian ryegrass [11] = test: Test Example 3: weedkilling efficacy through soil treatment; I: Italian ryegrass; settings: treatment dosage 315 g/ha
In short: as §3

Indian mallow [12] = test: Test Example 3: weedkilling efficacy through soil treatment; K: Indian mallow; settings: treatment dosage 315 g/ha
In short: as §3

redroot pigweed [13] = test: Test Example 3: weedkilling efficacy through soil treatment; L: redroot pigweed; settings: treatment dosage 315 g/ha
In short: as §3

fig-leafed goosefoot [14] = test: Test Example 3: weedkilling efficacy through soil treatment; M: fig-leafed goosefoot; settings: treatment dosage 315 g/ha
In short: as §3

chickweed [15] = test: Test Example 3: weedkilling efficacy through soil treatment; N: chickweed; settings: treatment dosage 315 g/ha
In short: as §3

catchweed [16] = test: Test Example 3: weedkilling efficacy through soil treatment; O: catchweed; settings: treatment dosage 315 g/ha
In short: as §3

birds-eye speedwell [17] = test: Test Example 3: weedkilling efficacy through soil treatment; p: birds-eye speedwell; settings: treatment dosage 315 g/ha
In short: as §3

directly sown rice [18] = test: Test Example 3: soil treatment, effect on crop; b: directly sown rice; settings: treatment dosage 315 g/ha
In short: as §3

corn [19] = test: Test Example 3: soil treatment, effect on crop; c: corn; settings: treatment dosage 315 g/ha
In short: as §3

soybean [20] = test: Test Example 3: soil treatment, effect on crop; d: soybean; settings: treatment dosage 315 g/ha
In short: as §3

wheat [21] = test: Test Example 3: soil treatment, effect on crop; e: wheat; settings: treatment dosage 315 g/ha
In short: as §3

beet [22] = test: Test Example 3: soil treatment, effect on crop; f: beet; settings: treatment dosage 315 g/ha
In short: as §3

crabgrass [23] = test: Test Example 4: weedkilling efficacy by foliar treatment; D: crabgrass; settings: treatment dosage 315 g/ha
In short: (§4)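 Seeds are spot-sown into sterilized diluvial soil and covered with about 1.5 cm of soil. After 14 days' greenhouse growth at 25 to 30° C, plants are sprayed on stems and leaves with diluted emulsion at the stated g/ha rate, then scored at 3 weeks.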

green foxtail [24] = test: Test Example 4: weedkilling efficacy by foliar treatment; E: green foxtail; settings: treatment dosage 315 g/ha
In short: as §4

wild oat [25] = test: Test Example 4: weedkilling efficacy by foliar treatment; G: wild oat; settings: treatment dosage 315 g/ha
In short: as §4

black-grass [26] = test: Test Example 4: weedkilling efficacy by foliar treatment; H: black-grass; settings: treatment dosage 315 g/ha
In short: as §4

Italian ryegrass [27] = test: Test Example 4: weedkilling efficacy by foliar treatment; I: Italian ryegrass; settings: treatment dosage 315 g/ha
In short: as §4

Indian mallow [28] = test: Test Example 4: weedkilling efficacy by foliar treatment; K: Indian mallow; settings: treatment dosage 315 g/ha
In short: as §4

redroot pigweed [29] = test: Test Example 4: weedkilling efficacy by foliar treatment; L: redroot pigweed; settings: treatment dosage 315 g/ha
In short: as §4

fig-leafed goosefoot [30] = test: Test Example 4: weedkilling efficacy by foliar treatment; M: fig-leafed goosefoot; settings: treatment dosage 315 g/ha
In short: as §4

chickweed [31] = test: Test Example 4: weedkilling efficacy by foliar treatment; N: chickweed; settings: treatment dosage 315 g/ha
In short: as §4

catchweed [32] = test: Test Example 4: weedkilling efficacy by foliar treatment; O: catchweed; settings: treatment dosage 315 g/ha
In short: as §4

birds-eye speedwell [33] = test: Test Example 4: weedkilling efficacy by foliar treatment; p: birds-eye speedwell; settings: treatment dosage 315 g/ha
In short: as §4

directly sown rice [34] = test: Test Example 4: foliar treatment, effect on crop; b: directly sown rice; settings: treatment dosage 315 g/ha
In short: as §4

corn [35] = test: Test Example 4: foliar treatment, effect on crop; c: corn; settings: treatment dosage 315 g/ha
In short: as §4

soybean [36] = test: Test Example 4: foliar treatment, effect on crop; d: soybean; settings: treatment dosage 315 g/ha
In short: as §4

wheat [37] = test: Test Example 4: foliar treatment, effect on crop; e: wheat; settings: treatment dosage 315 g/ha
In short: as §4

beet [38] = test: Test Example 4: foliar treatment, effect on crop; f: beet; settings: treatment dosage 315 g/ha
In short: as §4

**Q.** Which results are given for `COc1ccnc(NC(=O)C(C)(C)N2COC(C)=C(c3ccccc3)C2=O)c1` [B-2-63]?
**A.** A (barnyard grass) weedkilling efficacy grade (barnyard grass [1]): 5 (weed kill ratio 90% or more, (practically complete withering)); B (bulrush) weedkilling efficacy grade (bulrush [2]): 5 (weed kill ratio 90% or more, (practically complete withering)); C (oval-leafed pondweed) weedkilling efficacy grade (oval-leafed pondweed [3]): 4 (weed kill ratio 70% or more, less than 90%); a (transplanted rice) effect on crop grade (transplanted rice): 0 (weed kill ratio 5% or less (practically no effect)); A (barnyard grass) weedkilling efficacy grade (barnyard grass [4]): 3 (weed kill ratio 40% or more, less than 70%); B (bulrush) weedkilling efficacy grade (bulrush [5]): 4 (weed kill ratio 70% or more, less than 90%); C (oval-leafed pondweed) weedkilling efficacy grade (oval-leafed pondweed [6]): 3 (weed kill ratio 40% or more, less than 70%); D (crabgrass) weedkilling efficacy grade (crabgrass [7]): 4 (weed kill ratio 70% or more, less than 90%); E (green foxtail) weedkilling efficacy grade (green foxtail [8]): 4 (weed kill ratio 70% or more, less than 90%); G (wild oat) weedkilling efficacy grade (wild oat [9]): 2 (weed kill ratio 20% or more, less than 40%); H (black-grass) weedkilling efficacy grade (black-grass [10]): 1 (weed kill ratio 5% or more, less than 20%); I (Italian ryegrass) weedkilling efficacy grade (Italian ryegrass [11]): 3 (weed kill ratio 40% or more, less than 70%); K (Indian mallow) weedkilling efficacy grade (Indian mallow [12]): 0 (weed kill ratio 5% or less (practically no effect)); L (redroot pigweed) weedkilling efficacy grade (redroot pigweed [13]): 1 (weed kill ratio 5% or more, less than 20%); M (fig-leafed goosefoot) weedkilling efficacy grade (fig-leafed goosefoot [14]): 3 (weed kill ratio 40% or more, less than 70%); N (chickweed) weedkilling efficacy grade (chickweed [15]): 3 (weed kill ratio 40% or more, less than 70%); O (catchweed) weedkilling efficacy grade (catchweed [16]): 3 (weed kill ratio 40% or more, less than 70%); P (birds-eye speedwell) weedkilling efficacy grade (birds-eye speedwell [17]): 4 (weed kill ratio 70% or more, less than 90%); b (directly sown rice) effect on crop grade (directly sown rice [18]): 0 (weed kill ratio 5% or less (practically no effect)); c (corn) effect on crop grade (corn [19]): 0 (weed kill ratio 5% or less (practically no effect)); d (soybean) effect on crop grade (soybean [20]): 0 (weed kill ratio 5% or less (practically no effect)); e (wheat) effect on crop grade (wheat [21]): 0 (weed kill ratio 5% or less (practically no effect)); f (beet) effect on crop grade (beet [22]): 0 (weed kill ratio 5% or less (practically no effect)); D (crabgrass) weedkilling efficacy grade (crabgrass [23]): 3 (weed kill ratio 40% or more, less than 70%); E (green foxtail) weedkilling efficacy grade (green foxtail [24]): 3 (weed kill ratio 40% or more, less than 70%); G (wild oat) weedkilling efficacy grade (wild oat [25]): 0 (weed kill ratio 5% or less (practically no effect)); H (black-grass) weedkilling efficacy grade (black-grass [26]): 0 (weed kill ratio 5% or less (practically no effect)); I (Italian ryegrass) weedkilling efficacy grade (Italian ryegrass [27]): 1 (weed kill ratio 5% or more, less than 20%); K (Indian mallow) weedkilling efficacy grade (Indian mallow [28]): 0 (weed kill ratio 5% or less (practically no effect)); L (redroot pigweed) weedkilling efficacy grade (redroot pigweed [29]): 0 (weed kill ratio 5% or less (practically no effect)); M (fig-leafed goosefoot) weedkilling efficacy grade (fig-leafed goosefoot [30]): 3 (weed kill ratio 40% or more, less than 70%); N (chickweed) weedkilling efficacy grade (chickweed [31]): 2 (weed kill ratio 20% or more, less than 40%); O (catchweed) weedkilling efficacy grade (catchweed [32]): 2 (weed kill ratio 20% or more, less than 40%); P (birds-eye speedwell) weedkilling efficacy grade (birds-eye speedwell [33]): 1 (weed kill ratio 5% or more, less than 20%); b (directly sown rice) effect on crop grade (directly sown rice [34]): 0 (weed kill ratio 5% or less (practically no effect)); c (corn) effect on crop grade (corn [35]): 0 (weed kill ratio 5% or less (practically no effect)); d (soybean) effect on crop grade (soybean [36]): 2 (weed kill ratio 20% or more, less than 40%); e (wheat) effect on crop grade (wheat [37]): 0 (weed kill ratio 5% or less (practically no effect)); f (beet) effect on crop grade (beet [38]): 0 (weed kill ratio 5% or less (practically no effect))
